Legend:
Phytophthora infestans = assay: microbe, parasite or virus in culture; format: cell-based; conditions: 1 mg/mL
Fusarium graminearum = assay: microbe, parasite or virus in culture; format: cell-based; conditions: for Average Diameter of the Colony: 1 mg/mL; for inhibition at 1000 µg/mL: read-out: Inhibition Rate
zucchini powdery mildew = assay: Field efficiency test, zucchini powdery mildew; format: in vivo; conditions: 0.50 mg/mL (active ingredients)
Source text: The formulation of emulsifiable concentrate is the same as that in Embodiment 3.
The variety of zucchini was Zaoqing F1 (manufactured by Wuwei Dadi Seed Industry Co., Ltd.), which was sown on July 29th, 2016. The first application was started on August 26th, at the early onset of powdery mildew (the average disease index is 10.07). The instrument for application was Agrolex HD 400 Model hand operating knapsack sprayer, which employed a cone nozzle. Each agent was formulated into the desired concentrations according to the usage amount of the control clear water. Both sides of the leaves were sprayed evenly so that the leaves were wetted by the liquor without loss. 10% of 3-(3',4'-methylenedioxy phenyl)-N-n-propyl acrylamide EC and 14% of 3-(3',4'-methylenedioxy phenyl)-piperidine acrylate EC were both diluted at a concentration of 0.50 mg/mL (active ingredients); the control agent, 430 g/L of tebuconazole SC (manufactured by Yantai Keda Chemical Co., Ltd.) was also diluted at a concentration of 0.50 mg/mL (active ingredients); additionally clear water was used as the control. Thereafter, applications were conducted every 7 days consecutively for 4 times. 10 days after the last application, the number of sick leaves at each grade of powdery mildew was investigated for the whole plant following the grading standard of 9 grades, to calculate the disease index and the control effect.

F. verticillioide = assay: Ex vivo mycelial growth inhibition, growth rate method; format: cell-based; conditions: 1 mg/mL
How it was run: (§1)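 Read-out is colony diameter by the cross method, converted to percent inhibition relative to the DMSO-only control. Plugs of 4 mm sat on PDA containing 5-7 graded concentrations of each DMSO-dissolved agent, in triplicate. Plates were held at 22±1.5°C for 7 days, or 10-20 days for some fungi.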

Pythium aphanidermatum = assay: as above; format: cell-based; conditions: 1 mg/mL
How it was run: as §1

Colletotrichum capsici = assay: as above; format: cell-based; conditions: 1 mg/mL; for inhibition at 1000 µg/mL: Colletotrichum truncatum
How it was run: as §1

[1] = tested on: Botryosphaeria berengeriana; assay: as above; format: cell-based; conditions: 1 mg/mL
How it was run: as §1

Coniella diplodiella = assay: as above; format: cell-based; conditions: 1 mg/mL
How it was run: as §1

[2] = tested on: F. oxysporum f. sp. vasinfectum; assay: as above; format: cell-based; conditions: 1 mg/mL; for inhibition at 1000 µg/mL: Fusarium oxysporum
How it was run: as §1

Exserohilum turcicum = assay: as above; format: cell-based; conditions: 1 mg/mL
How it was run: as §1

Thanatephorus cucumeris = assay: as above; format: cell-based; conditions: 1 mg/mL
How it was run: as §1

Sclerotinia sclerotiorum = assay: as above; format: cell-based; conditions: 1 mg/mL
How it was run: as §1

Botrytis cinerea = assay: as above; format: cell-based; conditions: 1 mg/mL
How it was run: as §1

Mycosphaerlla melonis = assay: as above; format: cell-based; conditions: 1 mg/mL
How it was run: as §1

Valsa mali = assay: as above; format: cell-based; conditions: 1 mg/mL; for inhibition at 1000 µg/mL: Cytospora mali
How it was run: as §1

Rhizoctonia solani = assay: as above; format: cell-based; conditions: for Average Diameter of the Colony / inhibition at 1000 µg/mL: Rhizoctonia solani, 1 mg/mL
How it was run: as §1

[3] = tested on: Botryosphaeriana berengeriana; assay: as above; format: cell-based; conditions: 1 mg/mL
How it was run: as §1

C. gossypii = assay: as above; format: cell-based; conditions: 1 mg/mL; for Average Diameter of the Colony: C. gossypii; for inhibition at 1000 µg/mL: Colletotrichum gossypii, C. cossypii, read-out: Inhibition Rate
How it was run: as §1

Phytophthora capsici = assay: as above; format: cell-based; conditions: for Average Diameter of the Colony / inhibition at 1000 µg/mL: Phytophthora capsici, 1 mg/mL; for antifungal activity against Phytophthora capsici: supplementary determination, compared with hymexazol
How it was run: as §1

[4] = tested on: Gaeumannomyces graminis var. graminis and G. graminis var. tritici; assay: as above; format: cell-based; conditions: 1 mg/mL
How it was run: as §1

F. oxysporum f. sp. lini = assay: as above; format: cell-based; conditions: 1 mg/mL; for inhibition at 1000 µg/mL: Fusarium oxysporum
How it was run: as §1

CCCNC(=O)/C=C/c1ccc2c(c1)OCO2 [3-(3',4'-methylenedioxyphenyl)-N-n-propyl acrylamide]
Average Diameter of the Colony (Phytophthora infestans): 0.00 cm | Average Diameter of the Colony (Fusarium graminearum): 2.27 cm | inhibition at 1000 µg/mL (Fusarium graminearum): 57.6% | Control Effect (zucchini powdery mildew): 60.24% | Average Diameter of the Colony (F. verticillioide): 2.94 cm | inhibition at 1000 µg/mL (F. verticillioide): 13% | Average Diameter of the Colony (Pythium aphanidermatum): 0.21 cm | inhibition at 1000 µg/mL (Pythium aphanidermatum): 96.9% | Average Diameter of the Colony (Colletotrichum capsici): 1.66 cm | inhibition at 1000 µg/mL (Colletotrichum capsici): 75.5% | Average Diameter of the Colony [1]: 3.60 cm | inhibition at 1000 µg/mL [1]: 47.1% | Average Diameter of the Colony (Coniella diplodiella): 0.00 cm | inhibition at 1000 µg/mL (Coniella diplodiella): 100% | Average Diameter of the Colony [2]: 3.03 cm | inhibition at 1000 µg/mL [2]: 58.1% | Average Diameter of the Colony (Exserohilum turcicum): 1.44 cm | inhibition at 1000 µg/mL (Exserohilum turcicum): 76.8% | Average Diameter of the Colony (Thanatephorus cucumeris): 3.51 cm | inhibition at 1000 µg/mL (Thanatephorus cucumeris): 59.2% | Average Diameter of the Colony (Sclerotinia sclerotiorum): 3.28 cm | inhibition at 1000 µg/mL (Sclerotinia sclerotiorum): 61.9% | Average Diameter of the Colony (Botrytis cinerea): 1.35 cm | inhibition at 1000 µg/mL (Botrytis cinerea): 82% | Average Diameter of the Colony (Mycosphaerlla melonis): 0.58 cm | inhibition at 1000 µg/mL (Mycosphaerlla melonis): 93.3% | Average Diameter of the Colony (Valsa mali): 0.65 cm | inhibition at 1000 µg/mL (Valsa mali): 91.8% | Average Diameter of the Colony (Rhizoctonia solani): 0.25 cm | inhibition at 1000 µg/mL (Rhizoctonia solani): 96.5% | Average Diameter of the Colony [3]: 4.63 cm | inhibition at 1000 µg/mL [3]: 18.8% | Average Diameter of the Colony (C. gossypii): 1.74 cm | inhibition at 1000 µg/mL (C. gossypii): 67.8% | Average Diameter of the Colony (Phytophthora capsici): 0.65 cm | inhibition at 1000 µg/mL (Phytophthora capsici): 87.7% | antifungal activity against Phytophthora capsici (Phytophthora capsici): superior to that of the control agent, hymexazol | Average Diameter of the Colony [4]: 3.05 cm | inhibition at 1000 µg/mL [4]: 57.3% | Average Diameter of the Colony (F. oxysporum f. sp. lini): 6.30 cm | inhibition at 1000 µg/mL (F. oxysporum f. sp. lini): 30%

O=C(/C=C/c1ccc2c(c1)OCO2)N1CCCCC1 [3-(3',4'-methylenedioxyphenyl)-piperidine acrylate]
Average Diameter of the Colony (Phytophthora infestans): 0.00 cm | Average Diameter of the Colony (Fusarium graminearum): 0.53 cm | inhibition at 1000 µg/mL (Fusarium graminearum): 90.1% | Control Effect (zucchini powdery mildew): 30.04% | Average Diameter of the Colony (F. verticillioide): 0.49 cm | inhibition at 1000 µg/mL (F. verticillioide): 85.5% | Average Diameter of the Colony (Pythium aphanidermatum): 0.06 cm | inhibition at 1000 µg/mL (Pythium aphanidermatum): 99.1% | Average Diameter of the Colony (Colletotrichum capsici): 0.28 cm | inhibition at 1000 µg/mL (Colletotrichum capsici): 95.9% | Average Diameter of the Colony [1]: 0.22 cm | inhibition at 1000 µg/mL [1]: 96.8% | Average Diameter of the Colony (Coniella diplodiella): 0.00 cm | inhibition at 1000 µg/mL (Coniella diplodiella): 100% | Average Diameter of the Colony [2]: 0.40 cm | inhibition at 1000 µg/mL [2]: 94.5% | Average Diameter of the Colony (Exserohilum turcicum): 0.34 cm | inhibition at 1000 µg/mL (Exserohilum turcicum): 94.5% | Average Diameter of the Colony (Thanatephorus cucumeris): 0.00 cm | inhibition at 1000 µg/mL (Thanatephorus cucumeris): 100% | Average Diameter of the Colony (Sclerotinia sclerotiorum): 0.00 cm | inhibition at 1000 µg/mL (Sclerotinia sclerotiorum): 100% | Average Diameter of the Colony (Botrytis cinerea): 0.25 cm | inhibition at 1000 µg/mL (Botrytis cinerea): 96.7% | Average Diameter of the Colony (Mycosphaerlla melonis): 0.00 cm | inhibition at 1000 µg/mL (Mycosphaerlla melonis): 100% | Average Diameter of the Colony (Valsa mali): 0.00 cm | inhibition at 1000 µg/mL (Valsa mali): 100% | Average Diameter of the Colony (Rhizoctonia solani): 0.00 cm | inhibition at 1000 µg/mL (Rhizoctonia solani): 100% | antifungal activity against Rhizoctonia solani (Rhizoctonia solani; supplementary determination, compared with chlorothalonil, dimethomorph and azoxystrobin): superior to that of chlorothalonil, dimethomorph and azoxystrobin | Average Diameter of the Colony [3]: 0.14 cm | inhibition at 1000 µg/mL [3]: 97.5% | Average Diameter of the Colony (C. gossypii): 0.10 cm | inhibition at 1000 µg/mL (C. gossypii): 98.2% | Average Diameter of the Colony (Phytophthora capsici): 0.00 cm | inhibition at 1000 µg/mL (Phytophthora capsici): 100% | antifungal activity against Phytophthora capsici (Phytophthora capsici): superior to that of the control agent, hymexazol | Average Diameter of the Colony [4]: 0.39 cm | inhibition at 1000 µg/mL [4]: 94.5% | Average Diameter of the Colony (F. oxysporum f. sp. lini): 2.73 cm | inhibition at 1000 µg/mL (F. oxysporum f. sp. lini): 69.7%
